How the values were obtained:
Assay in all cases: relative viability (nuclei count vs DMSO), 5 days (fraction); higher = more cells survive
NVP-TAE684 + Decitabine = compound: COc1cc(N2CCC(N3CCN(C)CC3)CC2)ccc1Nc1ncc(Cl)c(Nc2ccccc2S(=O)(=O)C(C)C)n1 [NVP-TAE684] + Nc1ncn([C@H]2C[C@H](O)[C@@H](CO)O2)c(=O)n1 [Decitabine] (partner 2 µM)
Procedure, shortened: (§1)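 Lung cancer cell lines in 1536-well plates got either a single drug or a fixed anchor-drug dose together with five library-drug doses (not always all listed) in √10 steps, by pin tool, on the day after seeding. Nuclei were counted after 5 days, and relative viability is the treated-to-vehicle ratio of nuclei counts. Values are medians of duplicate plates.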

[1] = compound: C1=CC=C2C(=C1)N=C(S2)C(C#N)C3=NC(=NC=C3)NCCC4=CN=CC=C4 + Nc1ncn([C@H]2C[C@H](O)[C@@H](CO)O2)c(=O)n1 [Decitabine] (partner 2 µM)
Procedure, shortened: as §1

Vandetanib + Trametinib = compound: COc1cc2/c(=N/c3ccc(Br)cc3F)nc[nH]c2cc1OCC1CCN(C)CC1 [Vandetanib] + CC(=O)Nc1cccc(-n2c(=O)n(C3CC3)c(=O)c3c(Nc4ccc(I)cc4F)n(C)c(=O)c(C)c32)c1 [Trametinib] (partner 0.02 µM)
Procedure, shortened: as §1

[2] = compound: C1=CC=C2C(=C1)N=C(S2)C(C#N)C3=NC(=NC=C3)NCCC4=CN=CC=C4 + Cc1cc(Nc2cc(N3CCN(C)CC3)nc(Sc3ccc(NC(=O)C4CC4)cc3)n2)n[nH]1 [Tozasertib] (partner 0.1 µM)
Procedure, shortened: as §1

Cell Line | relative viability (NVP-TAE684 + Decitabine; first compound 0.2 µM) | relative viability (NVP-TAE684 + Decitabine; first compound 0.6325 µM) | relative viability (NVP-TAE684 + Decitabine; first compound 2 µM) | relative viability ([1]; first compound 0.005 µM) | relative viability ([1]; first compound 0.01581 µM) | relative viability ([1]; first compound 0.05 µM) | relative viability ([1]; first compound 0.1581 µM) | relative viability ([1]; first compound 0.5 µM) | relative viability (Vandetanib + Trametinib; first compound 0.02 µM) | relative viability (Vandetanib + Trametinib; first compound 0.06325 µM) | relative viability (Vandetanib + Trametinib; first compound 0.2 µM) | relative viability (Vandetanib + Trametinib; first compound 0.6325 µM) | relative viability (Vandetanib + Trametinib; first compound 2 µM) | relative viability ([2]; first compound 0.005 µM) | relative viability ([2]; first compound 0.01581 µM) | relative viability ([2]; first compound 0.05 µM) | relative viability ([2]; first compound 0.1581 µM) | relative viability ([2]; first compound 0.5 µM)
SK-MES-1 | 0.41 | 0.335 | 0.305 | 0.48 | 0.405 | 0.372 | 0.409 | 0.41 | 0.593 | 0.464 | 0.304 | 0.405 | 0.357 | 0.909 | 0.978 | 0.838 | 0.886 | 0.511
SW 1573 | 0.526 | 0.497 | 0.104 | 0.36 | 0.497 | 0.252 | 0.436 | 0.504 | 0.59 | 0.568 |  | 0.598 | 0.615 | 0.174 | 0.179 |  | 0.175 | 0.156
NCI-H1975 | 0.401 | 0.389 | 0.36 | 0.436 | 0.341 | 0.334 | 0.432 | 0.434 | 0.356 | 0.344 | 0.378 | 0.35 | 0.365 | 0.458 | 0.741 | 0.635 | 0.878 | 0.203
NCI-H647 | 0.388 | 0.386 | 0.261 | 0.356 | 0.442 | 0.33 | 0.353 | 0.284 | 0.458 | 0.474 | 0.469 | 0.451 | 0.436 | 0.315 | 0.342 | 0.289 | 0.292 | 0.151
NCI-H322M | 0.658 | 0.619 | 0.526 | 0.579 | 0.773 | 0.775 | 0.711 | 0.736 | 0.513 | 0.476 | 0.516 | 0.55 | 0.486 | 0.4 | 0.382 | 0.487 | 0.531 | 0.48
NCI-H1648 | 0.39 | 0.449 | 0.27 |  | 0.438 |  | 0.535 | 0.388 | 0.426 | 0.461 | 0.512 | 0.541 | 0.506 | 0.394 | 0.416 | 0.553 | 0.424 | 0.484
